ChEMBL document CHEMBL1124577, “LH-RH antagonists: design and synthesis of a novel series of peptidomimetics” (J Med Chem, 1989)

Columns and labels:
[1] = target: T1, Gonadotropin-releasing hormone receptor (Rattus norvegicus, UniProt P30969); assay: Binding affinity at Leutinizing releasing hormone receptor in rat pituitary using [125I]leuprolide as radioligand
T1 sequence (P30969 whole entry): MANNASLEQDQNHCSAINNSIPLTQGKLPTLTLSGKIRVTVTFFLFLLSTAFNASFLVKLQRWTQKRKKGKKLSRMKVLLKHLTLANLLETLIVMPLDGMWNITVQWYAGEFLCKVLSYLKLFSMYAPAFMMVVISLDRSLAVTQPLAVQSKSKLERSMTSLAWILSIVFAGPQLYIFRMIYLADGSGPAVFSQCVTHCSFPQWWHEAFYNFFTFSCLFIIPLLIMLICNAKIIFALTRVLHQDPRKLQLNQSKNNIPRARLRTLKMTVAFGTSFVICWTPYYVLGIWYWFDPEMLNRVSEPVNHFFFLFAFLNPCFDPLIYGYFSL

[2] = target: T1, Gonadotropin-releasing hormone receptor; assay: Binding affinity at LH-RH receptor in rat pituitary using [125I]leuprolide as radioligand
[3] = target: T2, Gonadotropin-releasing hormone receptor (Rattus norvegicus) (UniProt P30969); assay: Apparent receptor density at 1.0*10e-5 M concentration
T2 sequence (whole entry): T1 sequence (P30969 whole entry)

Rattus norvegicus = species: Rattus norvegicus; assay: Antagonism of leuprolide-induced release of luteinizing hormone from rat pituitary cell; type: functional; conditions: Pituitary gland cell, read-out: pA2 (converted)
[4] = target: T2, Gonadotropin-releasing hormone receptor (Rattus norvegicus); assay: Apparent receptor density at 3.16*10e-5 M concentration
[5] = target: T1, Gonadotropin-releasing hormone receptor; assay: Dissociation constant was determined in vitro using rat pituitary membranes, at concentration 1.0*10e-5 M; type: cell membranes
[6] = target: T2, Gonadotropin-releasing hormone receptor (Rattus norvegicus); assay: Apparent receptor density at 3.16*10e-6 M concentration
[7] = target: T1, Gonadotropin-releasing hormone receptor; assay: Dissociation constant was determined in vitro using rat pituitary membranes and [125I]leuprolide as radioligand, at concentration 3.16*10e-5 M; type: cell membranes
[8] = target: T1, Gonadotropin-releasing hormone receptor; assay: Dissociation constant was determined in vitro using rat pituitary membranes and [125I]-leuprolide as radioligand, at concentration 3.16*10e-6 M; type: cell membranes

## O=C1c2ccccc2C(=O)N1C[C@H]1CO[C@](Cn2ccnc2)(c2ccc(Cl)cc2Cl)O1
[1]
  IC50: > 30000 nM

## CC(=O)N1CCN(c2ccc(OCC3COC(Cn4ccnc4)(c4ccc(Cl)cc4Cl)O3)cc2)CC1 (configuration not stated) [KETOCONAZOLE]
[2]
  IC50: 2000 nM
[3]
  Bmax: 2.01 pmol/mg
Rattus norvegicus
  Kb: 64600 nM
[4]
  Bmax: 1.6 pmol/mg
[5]
  Kd: 0.375 nM
[6]
  Bmax: 1.91 pmol/mg
[7]
  Kd: 811 nM
[8]
  Kd: 0.221 nM

## OC[C@H]1CO[C@](Cn2ccnc2)(c2ccc(Cl)cc2Cl)O1
[1]
  IC50: > 30000 nM

## O=C(NC[C@H]1CO[C@](Cn2ccnc2)(c2ccc(Cl)cc2Cl)O1)C1CCC(=O)N1C(=O)OCc1ccccc1 (some centres not stated)
[1]
  IC50: > 30000 nM

## Clc1ccc([C@@]2(Cn3ccnc3)OC[C@H](CNCc3c[nH]c4ccccc34)O2)c(Cl)c1
[1]
  IC50: > 30000 nM

## Clc1ccc([C@@]2(Cn3ccnc3)OC[C@H](COc3ccccc3)O2)c(Cl)c1
[1]
  IC50: > 30000 nM

## CC(C)(C)OC(=O)N[C@@H](Cc1c[nH]c2ccccc12)C(=O)N1CCC[C@H]1C(=O)N[C@@H](CC1=CNCN1)C(=O)NC[C@H]1CO[C@](Cn2ccnc2)(c2ccc(Cl)cc2Cl)O1
Rattus norvegicus
  Kb: 4570 nM
[1]
  IC50: 500 nM

## O=C(NC[C@H]1CO[C@](Cn2ccnc2)(c2ccc(Cl)cc2Cl)O1)[C@H](Cc1c[nH]cn1)NC(=O)[C@@H]1CCC(=O)N1C(=O)OCc1ccccc1
[1]
  IC50: 2000 nM

## CCC(C)n1ncn(-c2ccc(N3CCN(c4ccc(OC[C@H]5CO[C@](Cn6ccnc6)(c6ccc(Cl)cc6Cl)O5)cc4)CC3)cc2)c1=O (some centres not stated)
[1]
  IC50: > 30000 nM
